How the values were obtained:
[1] = test system: E. coli serotype O1:H23 (APEC); test: Host range spot assay; type: cell-based, Escherichia coli; design: key: — indicates no lysis at all; 0.1-1.0 indicates that the phage is semi-lytic; 1.1-2.0 indicates moderate lysis of bacteria; 2.1-3.0 indicates complete lysis of bacteria and formation of a transparent, circular clearing on the bacterial lawn; details: E. coli serotype O1:H23, scale 0-3
Experimental: (§1) The host range of each bacteriophage type was determined by performing spot assays using each of the ten distinct APEC serotypes mentioned above. Spot assays were performed as known in the art (Barrow et al., 1998, Clinical and Diagnostic Laboratory Immunology, 5 (3), 294-298). 100 μL aliquots of log-phase bacterial cultures were combined with 67.5 μL 1M CaCl2) and 4 mL LB overlay, mixed briefly, and poured over LB agar plates. Once the overlay had solidified, 5 μL aliquots of individual phage types were applied (i.e., spotted) onto the plates, and plates were incubated at 37° C. overnight. Plates were assessed for clearings the following day and the degree of lysis was measured using a four-point scale in which 0 indicated no lysis, 1.0 indicated some lysis, 2.0 indicated moderate lysis, and 3 indicated complete lysis. Spot assays were conducted in triplicate for each phage and APEC strain.

[2] = test system: E. coli serotype O1:H7 (APEC); test: Host range spot assay; type: cell-based, Escherichia coli; design: key: — indicates no lysis at all; 0.1-1.0 indicates that the phage is semi-lytic; 1.1-2.0 indicates moderate lysis of bacteria; 2.1-3.0 indicates complete lysis of bacteria and formation of a transparent, circular clearing on the bacterial lawn; details: E. coli serotype O1:H7, scale 0-3
Experimental: as §1

[3] = test system: E. coli serotype O2 (APEC); test: Host range spot assay; type: cell-based, Escherichia coli; design: key: — indicates no lysis at all; 0.1-1.0 indicates that the phage is semi-lytic; 1.1-2.0 indicates moderate lysis of bacteria; 2.1-3.0 indicates complete lysis of bacteria and formation of a transparent, circular clearing on the bacterial lawn; details: E. coli serotype O2, scale 0-3
Experimental: as §1

[4] = test system: E. coli serotype O2:H4 (APEC); test: Host range spot assay; type: cell-based, Escherichia coli; design: key: — indicates no lysis at all; 0.1-1.0 indicates that the phage is semi-lytic; 1.1-2.0 indicates moderate lysis of bacteria; 2.1-3.0 indicates complete lysis of bacteria and formation of a transparent, circular clearing on the bacterial lawn; details: E. coli serotype O2:H4, scale 0-3
Experimental: as §1

[5] = test system: E. coli serotype O6:H31 (APEC); test: Host range spot assay; type: cell-based, Escherichia coli; design: key: — indicates no lysis at all; 0.1-1.0 indicates that the phage is semi-lytic; 1.1-2.0 indicates moderate lysis of bacteria; 2.1-3.0 indicates complete lysis of bacteria and formation of a transparent, circular clearing on the bacterial lawn; details: E. coli serotype O6:H31, scale 0-3
Experimental: as §1

[6] = test system: E. coli serotype O78:H9 (APEC); test: Host range spot assay; type: cell-based, Escherichia coli; design: key: — indicates no lysis at all; 0.1-1.0 indicates that the phage is semi-lytic; 1.1-2.0 indicates moderate lysis of bacteria; 2.1-3.0 indicates complete lysis of bacteria and formation of a transparent, circular clearing on the bacterial lawn; details: E. coli serotype O78:H9, scale 0-3
Experimental: as §1

host APEC E. coli O6:H31 = test: Lytic capacity of individual phages in liquid media (OD600); type: cell-based, Escherichia coli; details: for concentration of APEC (OD600) versus untreated APEC cultures: 2, 3, and 4 hours post-treatment; for OD600 reading of phage-treated APEC culture: after 1 hour of incubation, MOI 10, 37° C., untreated AHP host OD600=0.497
Experimental: (§2) Individual APEC strains (100 μL) were inoculated into 15 mL LB media in separate tubes (two tubes per strain) and incubated at 37° C. in a shaking incubator. Once the bacterial cultures reached an OD600 0.18-0.22, the individual bacteriophage types (MOI=10) were added to one tube from the pair of tubes inoculated with their respective host APEC strain. The other tubes of bacterial culture were left untreated and served as negative controls. Bacterial growth was assessed by measuring absorbance (OD600) in all tubes every hour for 4 hours. The experiment was repeated three times.
(§3) The six APEC strains were individually inoculated into LB broth and incubated at 37° C. until they reached log-phase growth. Phages were added to the log-phase culture of their APEC host at an MOI of 10, and subsequent bacterial concentrations were determined by measuring the absorbance (OD600) of the culture at 1, 2, 3, and 4 hours post-phage application. One flask containing only bacterial culture was included as a negative control. Additional flasks containing both bacterial cultures and antibiotics (specifically, gentamycin sulfate, kanamycin sulfate, nalidixic acid, or chloramphenicol) at their respective minimum inhibitory concentrations (National Antibiotic Resistance Monitoring System (NARMS) 2019, antibiotics tested by NARMS) were included as positive controls. These lytic capacity experiments were conducted in triplicate for each of the phage types and their respective host APEC strains.

host APEC E. coli O2:H4 = test: as above; type: cell-based, Escherichia coli; details: for OD600 reading of phage-treated APEC culture: after 1 hour of incubation, MOI 10, 37° C., untreated host OD600=0.454
Experimental: as §2, §3

[7] = Phage stability in simulated intestinal fluid (SIF); type: physicochemical; details: unencapsulated phage, SIF pH 7, 41° C., 1, 2, and 3 hours
Experimental: To assess phage stability in intestinal fluids, 0.5 mL of unencapsulated phages were added to 4.5 mL of simulated intestinal fluid (SIF; 0.1% (w/v) bile salt and 0.4% (w/v) pancreatin in 50 mM KH2PO4; pH 7) and incubated at 41° C. As a negative control, 0.5 mL of unencapsulated phages were added to 4.5 mL of 1×PBS and incubated at 41° C. Aliquots (100 μL) were collected from each sample after 1, 2, and 3 hours of exposure to SIF. These aliquots were serially diluted and phage concentrations were measured by standard plaque assay as described above. The experiment was conducted in triplicate for each phage type. Concentrations of viable phages after exposure to SIF or PBS at a given time point were then compared.

[8] = 1, 2, 3, and 4 hours post-treatment, MOI 10, P<0.05

Substance: Escherichia phage vB_Eco_AHC
- degree of lysis [1]: 1.0
- degree of lysis [2]: —
- degree of lysis [3]: 3.0
- degree of lysis [4]: —
- degree of lysis [5]: 2.7
- degree of lysis [6]: —
- concentration of APEC (OD600) versus untreated APEC cultures (host APEC E. coli O6:H31; MOI 10, P<0.05): Significantly lower
- OD600 reading of phage-treated APEC culture (host APEC E. coli O6:H31): did not significantly differ

Substance: Escherichia phage vB_Eco_AHP
- degree of lysis [1]: 3.0
- degree of lysis [2]: 3.0
- degree of lysis [3]: —
- degree of lysis [4]: —
- degree of lysis [5]: 3.0
- degree of lysis [6]: —
- concentration of APEC host versus APEC cultures incubated without phages (host APEC E. coli O6:H31; [8]): significantly lower
- OD600 reading of phage-treated APEC culture (host APEC E. coli O6:H31): 0.284

Substance: Escherichia phage vB_Eco_AKA
- degree of lysis [1]: 1.0
- degree of lysis [2]: —
- degree of lysis [3]: 2.7
- degree of lysis [4]: —
- degree of lysis [5]: 3.0
- degree of lysis [6]: —
- concentration of APEC (OD600) versus untreated APEC cultures (host APEC E. coli O6:H31; MOI 10, P<0.05): Significantly lower
- OD600 reading of phage-treated APEC culture (host APEC E. coli O6:H31): did not significantly differ

Substance: Escherichia phage vB_Eco_MIA
- degree of lysis [1]: 1.0
- degree of lysis [2]: —
- degree of lysis [3]: 3.0
- degree of lysis [4]: —
- degree of lysis [5]: 2.7
- degree of lysis [6]: —
- concentration of APEC (OD600) versus untreated APEC cultures (host APEC E. coli O6:H31; MOI 10, P<0.05): Significantly lower
- OD600 reading of phage-treated APEC culture (host APEC E. coli O6:H31): did not significantly differ

Substance: Escherichia phage vB_Eco_MP_1 [MP1]
- degree of lysis [1]: —
- degree of lysis [2]: —
- degree of lysis [3]: —
- degree of lysis [4]: 2.7
- degree of lysis [5]: —
- degree of lysis [6]: —
- OD600 reading of phage-treated APEC culture (host APEC E. coli O2:H4): 0.101
- phage concentration SIF-exposed versus PBS-exposed [7]: significantly lower

Substance: Escherichia phage vB_Eco_MP_2 [MP2]
- degree of lysis [1]: —
- degree of lysis [2]: —
- degree of lysis [3]: —
- degree of lysis [4]: 3.0
- degree of lysis [5]: —
- degree of lysis [6]: —
- concentration of APEC host versus APEC cultures incubated without phages (host APEC E. coli O2:H4; [8]): significantly lower
- OD600 reading of phage-treated APEC culture (host APEC E. coli O2:H4): 0.328
